The test system of data set [1] is Vitis vinifera. The data set is described as follows: Phytotoxicity against grape leaf assessed as decrease in chlorophyll level after 64 hrs by leaf disk assay relative to control. Format: organism-based. The conditions noted are these: in vivo. Further details: scale not given: the % may be the effect or the level left; call rule not given here.
For data set [2], the system named is Vitis vinifera. Nature of the data set: Phytotoxicity against grape leaf by leaf disk assay. It counts as organism-based. Conditions: in vivo.

Consider `CC1(C)C=Cc2cc(CO)ccc2O1` [EULATACHROMENE], for which the Activity with Vitis vinifera [1] was 60%.
In the case of `C=C(C)C#Cc1cc(C=O)ccc1O` [EUTYPINE], the outcome in the data set on Vitis vinifera [2] was Active.
On the same count and under the same terms, the value for `C=C(C)C#Cc1cc(O)ccc1O` [SICCAYNE] was “Not Active”.

(Values after ChEMBL document CHEMBL1158899, “Synthesis and structure-phytotoxicity relationships of acetylenic phenols and chromene metabolites, and their analogues, from the grapevine pathogen Eutypa lata” (J Nat Prod, 2003).)
